Patent US20050197338A1, “Substituted pyrazole urea compounds for the treatment of inflammation” (priority 2003, published 2005)

Biological target: T1, human IKK-2 (rhIKK-2 homodimer) (Homo sapiens, UniProt O14920)
T1 construct: FLAG (DYKDDDDKD) (C); made in house; host or cells: insect cells (baculovirus, pFastBac)
T1 sequence (O14920 1-756): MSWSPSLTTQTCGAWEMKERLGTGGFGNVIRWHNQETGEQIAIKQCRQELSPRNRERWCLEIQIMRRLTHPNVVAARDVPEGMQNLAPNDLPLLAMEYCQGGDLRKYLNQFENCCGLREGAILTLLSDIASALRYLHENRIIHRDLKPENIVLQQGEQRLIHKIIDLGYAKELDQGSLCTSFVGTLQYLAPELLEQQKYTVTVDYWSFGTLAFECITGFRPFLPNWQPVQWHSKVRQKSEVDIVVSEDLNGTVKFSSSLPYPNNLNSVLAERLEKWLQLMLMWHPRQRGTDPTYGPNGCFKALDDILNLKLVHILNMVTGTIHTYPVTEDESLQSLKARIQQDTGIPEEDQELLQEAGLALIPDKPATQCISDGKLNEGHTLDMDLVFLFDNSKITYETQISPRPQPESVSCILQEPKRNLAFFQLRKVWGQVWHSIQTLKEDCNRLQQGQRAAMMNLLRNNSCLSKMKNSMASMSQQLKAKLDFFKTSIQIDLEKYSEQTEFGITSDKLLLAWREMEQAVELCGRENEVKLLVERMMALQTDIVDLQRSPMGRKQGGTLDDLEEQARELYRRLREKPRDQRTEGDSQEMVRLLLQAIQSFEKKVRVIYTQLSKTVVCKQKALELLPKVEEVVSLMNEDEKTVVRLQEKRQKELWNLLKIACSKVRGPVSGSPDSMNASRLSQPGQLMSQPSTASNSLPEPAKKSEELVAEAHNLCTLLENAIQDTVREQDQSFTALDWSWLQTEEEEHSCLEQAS
Experiment: IKK-2 Resin Enzyme Assay (Human IKK-2 Enzyme Assay)
Format: biochemical
Conditions: human IKK-2, resin enzyme assay; read-out: IC50 (μM) hIKK-2
Source text: Materials: SAM^2™96 Biotin capture plates were from Promega. Anti-FLAG affinity resin, FLAG-peptide, NP-40 (Nonidet P-40), BSA, ATP, ADP, AMP, LPS (E. coli serotype 0111:B4), and dithiothreitol were obtained from Sigma Chemicals. Antibodies specific for NEMO (IKK-γ) (FL-419), IKK-1 (H-744), IKK-2(H-470) and IκBa(C-21) were purchased from Santa Cruz Biotechnology. Ni-NTA resin was purchased from Qiagen. Peptides were purchased from American Peptide Company. Protease inhibitor cocktail tablets were from Boehringer Mannheim. Sephacryl S-300 column was from Pharmacia LKB Biotechnology. Centriprep-10 concentrators with a molecular weight cutoff of 10 kDa and membranes with molecular weight cut-off of 30 kDa were obtained from Amicon. [γ-^33P] ATP (2500 Ci/mmol) and [γ-^32P] ATP (6000 Ci/mmol) were purchased from Amersham. The other reagents used were of the highest grade commercially available.
Cloning and Expression: cDNAs of human IKK-1 and IKK-2 were amplified by reverse transcriptase-polymerase chain reaction from human placental RNA (Clonetech). hlKK-1 was subcloned into pFastBac HTa (Life Technologies) and expressed as N-terminal His6-tagged fusion protein. The hlKK-2 cDNA was amplified using a reverse oligonucleotide primer which incorporated the peptide sequence for a FLAG-epitope tag at the C-terminus of the IKK-2 coding region (DYKDDDDKD). The hlKK-2:FLAG cDNA was subcloned into the baculovirus vector pFastBac. The rhIKK-2 ([…]) mutant was constructed in the same vector used for wild type rhIKK-2 using a QuikChange™ mutagenesis kit (Stratagene). Viral stocks of each construct were used to infect insect cells grown in 40 L suspension culture. […] Cell lysates were stored at −80° C. until purification of the recombinant proteins was undertaken as described below.
Enzyme Isolation: All purification procedures were carried out at 4° C. unless otherwise noted. Buffers used are: buffer A: 20 mM Tris-HCl, pH 7.6, containing 50 mM NaCl, 20 mM NaF, 20 mM β-Glycerophosphate, 500 μM sodium orthovanadate, 2.5 mM metabisulfite, 5 mM benzamidine, 1 mM EDTA, 0.5 mM EGTA, 10% glycerol, 1 mM DTT, 1× Complete™ protease inhibitors; buffer B: same as buffer A, except 150 mM NaCl, and buffer C: same as buffer A, except 500 mM NaCl.
Isolation of rhIKK-2 homodimer: A 10-liter culture of baculovirus-expressing IKK-2 tagged with FLAG peptide was centrifuged and the cell pellet (MOI=0.1 and 1=72 h) was re-suspended in buffer A. These cells were microfluidized, and centrifuged at 100,000×g for 45 min. Supernatant was passed over a G-25 column equilibrated with Buffer A. Protein peak was collected and incubated with anti-FLAG affinity resin on a rotator overnight in buffer B. The resin was washed in batch with 10-15 bed volumes of buffer C. Washed resin was poured into a column and rhIKK-2 homodimer was eluted using 5 bed volumes of buffer B containing FLAG peptide. 5 mM DTT, 0.1% NP-40 and BSA (concentrated to 0.1% in final amount) was added to the eluted enzyme before concentrating in using an Amicon membrane with a molecular weight cut-off of 30 kDa. Enzyme was aliquoted and stored at −80° C.
IKK-2 Resin Enzyme Assay: IKK-2 kinase activity was measured using a biotinylated IκBα peptide (Gly-Leu-Lys-Lys-Glu-Arg-Leu-Leu-Asp-Asp-Arg-His-Asp-Ser32-Gly-Leu-Asp-Ser36-Met-Lys-Asp-Glu-Glu) (American Peptide Co.). 20 μL of the standard reaction mixture contained 5 μM biotinylated IκBα peptide, 0.1 μCi/reaction [γ-^33P] ATP (Amersham) (about 1×10^5 cpm), 1 μM ATP (Sigma), 1 mM DTT (Sigma), 2 mM MgCl2 (Sigma), 2 mM MnCl2 (Sigma), 10 mM NaF (Sigma), 25 mM Hepes (Sigma) buffer, pH 7.6 and 20 μL enzyme solution and 10 μL inhibitor in a final volume of 50 μL. After incubation at 25° C. for 30 min, 150 μL resin (Dowex anion-exchange resin AG1X8 200-400 mesh) in 900 mM formate, pH 3.0 was added to each well to stop the reaction. Resin was allowed to settle for 1 h and 50 μL of supernatant was removed to a Micolite-2 flat bottom plate (Dynex). […]

Structure (SMILES)	IC50
NC(=O)Nc1cn(-c2cccc(-c3ccc4[nH]ccc4c3)c2)nc1C(N)=O [Example 65, 4-[(aminocarbonyl)amino]-1-[3-(1H-indol-5-yl)phenyl]-1H-pyrazole-3-carboxamide]	1.8 µM
NC(=O)Nc1cn(-c2ccc(S(=O)(=O)c3ccccc3O)cc2)nc1C(N)=O [Example 288, 1-(1-(4-(2-hydroxyphenylsulfonyl)phenyl)-3-carbamoyl-1H-pyrazol-4-yl)urea]	0.252 µM
CCCNC(=O)c1ccc(-c2cccc(-n3cc(NC(N)=O)c(C(N)=O)n3)c2)cc1 [Example 75, 4-[(aminocarbonyl)amino]-1-{4′-[(propylamino)carbonyl]-1,1′-biphenyl-3-yl}-1H-pyrazole-3-carboxamide]	0.48 µM
NC(=O)Nc1cn(-c2cccc(-c3cccc(N)c3)c2)nc1C(N)=O [Example 50, 1-(3′-amino-1,1′-biphenyl-3-yl)-4-[(aminocarbonyl)amino]-1H-pyrazole-3-carboxamide]	2.08 µM
CC(C)(C)NC(=O)c1cccc(-c2ccc(-n3cc(NC(N)=O)c(C(N)=O)n3)cc2)c1 [Example 31, 4-[(aminocarbonyl)amino]-1-{3′-[(tert-butylamino)carbonyl]-1,1′-biphenyl-4-yl}-1H-pyrazole-3-carboxamide]	4.79 µM
NC(=O)Nc1cn(-c2ccc(Sc3ccc(F)cc3)cc2Cl)nc1C(N)=O [Example 376, 1-(1-(4-(4-fluorophenylthio)-2-chlorophenyl)-3-carbamoyl-1H-pyrazol-4-yl)urea]	0.31 µM
NC(=O)Nc1cn(-c2cccc(-c3ccc(F)c(F)c3)c2)nc1C(N)=O [Example 349, 4-[(aminocarbonyl)amino]-1-(3′,4′-difluoro-1,1′-biphenyl-3-yl)-1H-pyrazole-3-carboxamide]	> 20 µM
Cc1cccc(-c2ccc(-n3cc(NC(N)=O)c(C(N)=O)n3)cc2)c1 [Example 102, 4-[(aminocarbonyl)amino]-1-(3′-methyl-1,1′-biphenyl-4-yl)-1H-pyrazole-3-carboxamide]	2.82 µM
CC(C)c1ccc(-c2cccc(-n3cc(NC(N)=O)c(C(N)=O)n3)c2)cc1 [Example 353, 4-[(aminocarbonyl)amino]-1-(4′-isopropyl-1,1′-biphenyl-3-yl)-1H-pyrazole-3-carboxamide]	> 20 µM
Cc1cccc(-c2cccc(-n3cc(NC(N)=O)c(C(N)=O)n3)c2)c1 [Example 340, 4-[(aminocarbonyl)amino]-1-(3′-methyl-1,1′-biphenyl-3-yl)-1H-pyrazole-3-carboxamide]	> 20 µM
Cc1cc(-n2cc(NC(N)=O)c(C(N)=O)n2)ccc1-c1ccccc1O [Example 240, 1-(2′-Hydroxy-2-methyl-biphenyl-4-yl)-4-ureido-1H-pyrazole-3-carboxylic acid amide]	2.02 µM
NC(=O)Nc1cn(-c2cccc(-c3cc(Cl)cc(Cl)c3)c2)nc1C(N)=O [Example 370, 4-[(aminocarbonyl)amino]-1-(3′,5′-dichloro-1,1′-biphenyl-3-yl)-1H-pyrazole-3-carboxamide]	> 20 µM
CS(=O)(=O)Nc1ccc(-c2cccc(-n3cc(NC(N)=O)c(C(N)=O)n3)c2)cc1 [Example 59, 4-[(aminocarbonyl)amino]-1-{4′-[(methylsulfonyl)amino]-1,1′-biphenyl-3-yl}-1H-pyrazole-3-carboxamide]	1.64 µM
CNC(=O)Nc1cn(-c2ccc(I)cc2)nc1C(N)=O [Example 17, 1-(4-iodophenyl)-4-{[(methylamino)carbonyl]amino}-1H-pyrazole-3-carboxamide]	1.72 µM
CCc1cc(Br)ccc1N/N=C(\C#N)C(N)=O [Example 277, (2E)-2-[(4-bromo-2-ethylphenyl)hydrazono]-2-cyanoacetamide]	7.59 µM
CC(C)c1ccc(-n2cc(NC(N)=O)c(C(N)=O)n2)cc1 [Example 216, 4-[(aminocarbonyl)amino]-1-(4-isopropylphenyl)-1H-pyrazole-3-carboxamide]	0.159 µM
NC(=O)Nc1cn(-c2cccc(-c3cccc4ncccc34)c2)nc1C(N)=O [Example 60, 4-[(aminocarbonyl)amino]-1-(3-quinolin-5-ylphenyl)-1H-pyrazole-3-carboxamide]	3.75 µM
NC(=O)Nc1cn(-c2ccc(-c3ccc(C(=O)NCc4ccccc4)c(F)c3)cc2)nc1C(N)=O [Example 151, 4-[(aminocarbonyl)amino]-1-{4′-[(benzylamino)carbonyl]-3′-fluoro-1,1′-biphenyl-4-yl}-1H-pyrazole-3-carboxamide]	0.31 µM
NC(=O)Nc1cn(-c2cccc(-c3ccccc3CO)c2)nc1C(N)=O [Example 87]	1.52 µM
NC(=O)Nc1cn(-c2ccc(S(=O)(=O)c3ccc(F)cc3)cc2F)nc1C(N)=O [Example 378, 1-(1-(4-(4-fluorophenylsulfonyl)-2-fluorophenyl)-3-carbamoyl-1H-pyrazol-4-yl)urea]	0.315 µM
NC(=O)Nc1cn(-c2cccc(-c3ccc(Cl)cc3)c2)nc1C(N)=O [Example 348, 4-[(aminocarbonyl)amino]-1-(4′-chloro-1,1′-biphenyl-3-yl)-1H-pyrazole-3-carboxamide]	> 20 µM
NC(=O)Nc1nn(-c2ccc(-c3cccc(C(F)(F)F)c3)cc2)cc1C(N)=O [Example 131]	3.15 µM
N#Cc1cccc(-c2cccc(-n3cc(NC(N)=O)c(C(N)=O)n3)c2)c1 [Example 341, 4-[(aminocarbonyl)amino]-1-(3′-cyano-1,1′-biphenyl-3-yl)-1H-pyrazole-3-carboxamide]	0.984 µM
Cc1cnccc1-c1cccc(-n2cc(NC(N)=O)c(C(N)=O)n2)c1 [Example 69, 4-[(aminocarbonyl)amino]-1-[3-(3-methylpyridin-4-yl)phenyl]-1H-pyrazole-3-carboxamide]	0.65 µM
NC(=O)Nc1cn(-c2cccc(-c3cc(F)cc(F)c3)c2)nc1C(N)=O [Example 350, 4-[(aminocarbonyl)amino]-1-(3′,5′-difluoro-1,1′-biphenyl-3-yl)-1H-pyrazole-3-carboxamide]	> 20 µM
